The source made the active and inactive calls. The calls are words filed in the database; no cut-off is given here.
Molecular target: T1, Phosphatidylinositol 3,4,5-trisphosphate 5-phosphatase 1 (Homo sapiens) (UniProt Q92835)
T1 sequence (whole entry): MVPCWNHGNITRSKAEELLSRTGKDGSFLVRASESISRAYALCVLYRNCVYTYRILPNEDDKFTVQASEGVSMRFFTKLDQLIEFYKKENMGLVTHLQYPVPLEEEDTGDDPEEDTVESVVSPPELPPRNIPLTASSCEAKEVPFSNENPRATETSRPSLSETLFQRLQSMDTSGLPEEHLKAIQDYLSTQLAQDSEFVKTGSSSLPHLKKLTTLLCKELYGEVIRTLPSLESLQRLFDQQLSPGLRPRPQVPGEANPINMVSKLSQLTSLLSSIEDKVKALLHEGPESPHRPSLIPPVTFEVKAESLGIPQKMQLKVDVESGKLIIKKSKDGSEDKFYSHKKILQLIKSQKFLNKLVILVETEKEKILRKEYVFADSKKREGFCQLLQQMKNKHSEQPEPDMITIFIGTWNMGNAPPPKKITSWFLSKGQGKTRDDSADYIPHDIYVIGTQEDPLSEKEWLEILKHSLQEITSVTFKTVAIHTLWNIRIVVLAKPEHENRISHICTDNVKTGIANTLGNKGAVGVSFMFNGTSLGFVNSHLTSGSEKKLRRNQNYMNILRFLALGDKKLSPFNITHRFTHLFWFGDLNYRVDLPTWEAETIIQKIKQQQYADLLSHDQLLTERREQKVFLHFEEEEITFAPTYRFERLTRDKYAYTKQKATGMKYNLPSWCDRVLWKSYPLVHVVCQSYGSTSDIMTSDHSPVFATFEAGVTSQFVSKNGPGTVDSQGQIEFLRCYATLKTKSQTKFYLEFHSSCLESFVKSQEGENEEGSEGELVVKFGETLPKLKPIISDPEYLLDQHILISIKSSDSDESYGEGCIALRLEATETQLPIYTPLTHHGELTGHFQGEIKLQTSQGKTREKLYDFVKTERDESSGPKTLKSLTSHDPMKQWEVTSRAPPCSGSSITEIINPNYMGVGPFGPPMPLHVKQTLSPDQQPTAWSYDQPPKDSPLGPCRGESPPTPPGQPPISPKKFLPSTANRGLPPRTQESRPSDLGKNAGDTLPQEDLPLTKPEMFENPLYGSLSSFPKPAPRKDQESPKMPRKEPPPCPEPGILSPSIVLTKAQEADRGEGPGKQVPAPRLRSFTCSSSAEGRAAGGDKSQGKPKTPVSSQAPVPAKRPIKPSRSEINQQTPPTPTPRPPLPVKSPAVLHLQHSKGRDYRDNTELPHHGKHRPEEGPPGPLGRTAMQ
Test: Activation of SHIP1 using IP4 as substrate at 10 uM preincubated for 10 mins before addition of IP4 measured after 10 mins

| Activity | Structure (SMILES) |
| --- | --- |
| Active | Cc1cc(O)cc2c1[C@]1(C)CC[C@H]3C(C)(C)CCC[C@]3(C)[C@H]1C2 |
| inactive | CC[C@H](C)[C@@H]1NC(=O)[C@@H](C)NC(=O)[C@H](C(C)C)NC(=O)C[C@H](/C=C/c2ccccc2)OC(=O)[C@H](C(C)C)NC1=O |
| Active | CC[C@H](C)[C@@H]1NC(=O)[C@@H](C)NC(=O)[C@H](C(C)C)NC(=O)C[C@@H](/C=C/c2ccccc2)OC(=O)[C@H](C(C)C)NC1=O |
